The values below come from US11478466B2, “Small molecule promoting osteoblast differentiation” (Cornell University, priority 2019, dated 2022).

One experiment deals with C2C12 cells. In words: qRT-PCR of osteoblast differentiation transcripts in C2C12 cells. The format is cell-based, mouse. The conditions noted are these: C2C12, 10 μM. The protocol:
For quantitative RT-PCR analysis of gene expression in C2C12 cultures, cells were treated for 2 days with 10 μM DIPQUO and harvested into Trizol reagent (Invitrogen). One microgram of RNA was reverse transcribed using the VILO-RT kit (Invitrogen) to generate cDNA, which was diluted 1:25 in RNase-free H2O for qPCR with Sybr green using the Roche 480 II LightCycler and the 2^−ΔΔCT method (Livak and Schmittgen, 2001). For analysis of osteoclast gene expression, RAW 264.7 cells were treated with DMSO, 50 ng/ml RANKL, or 10 μM DIPQUO for 4 days, then harvested into Trizol reagent and processed as above. Mouse qPCR primers are as follows. Runx2: F([…]) (SEQ ID NO:1); R([…]) (SEQ ID NO:2); Dlx5: F([…]) (SEQ ID NO:3); R([…]) (SEQ ID NO:4); Osterix: F([…]) (SEQ ID NO:5); R([…]) (SEQ ID NO:6); ALP: F([…]) (SEQ ID NO:7); R([…]) (SEQ ID NO:8); Osteocalcin: F([…]) (SEQ ID NO:9); R([…]) (SEQ ID NO:10); Osteoactivin: F([…]) (SEQ ID NO:11); R([…]) (SEQ ID NO:12); CTSK: F([…]) (SEQ ID NO:13); R([…]) (SEQ ID NO:14); MMP9: F([…]) (SEQ ID NO:15); R([…]) (SEQ ID NO:16); Gapdh F([…]) (SEQ ID NO:17); R([…]) (SEQ ID NO:18). RNA-seq studies were carried out with the assistance of the Weill Cornell Genomics Core Facility, using the Illumina HiSeq4000 next-generation sequencer to generate reads from cDNA libraries generated from three biological replicates of day 2 DMSO- or DIPQUO-treated C2C12 cells. Gene sets were clustered by biological/disease function using Ingenuity Pathway Analysis (Qiagen Bioinformatics). Heatmaps with hierarchical clustering were generated in R using the CRAN package for a subset of genes involved in bone morphogenesis. Following normalization of the RNA Sequencing counts in DeSeq, z-scores were computed across samples within each gene for use in the heatmap. The accession number for the sequencing data reported in this paper is NCBI GEO: GSE125052.
On the technique in general: Quantitative PCR measures a nucleic acid by following its amplification.

In a further experiment the test system is p38 MAPK. In words: Western blotting of p38 MAPK in BRITER cells. It counts as cell-based, mouse. The conditions noted are these: BMP-2/BMP-4 repression by tamoxifen. The protocol: Cells were maintained in DMEM with 10% FBS. For analysis of DIPQUO effects independent of BMP signaling, BMP-2 and BMP-4 knockdown was achieved by treating cells overnight with 1 μM 4-hydroxytamoxifen (4-OHT), followed by continued maintenance in 1 μM 4-OHT. Cells were serum-starved for at least 6 hours before treatment with recombinant BMP protein or DIPQUO as noted in figure legends.
Whole cell extracts were collected from C2C12 or BRITER cells in complete lysis buffer (20 mM Tris, 150 mM NaCl, 50 mM NaF, 1% NP40 substitute, HALT protease inhibitor cocktail (ThermoScientific). Proteins were resolved by electrophoresis on pre-cast 10% NuPage Bis-Tris gels (Invitrogen) and transferred to PVDF membranes (Bio-Rad). Membranes were blocked in 5% BSA-TBS-0.5% Tween-20 for 15 minutes, then incubated at 4° overnight with primary antibodies. Antibodies used were: rabbit anti-phospho-p38 MAPK (cat. no. 9211), anti-p38 MAPK XP (8690), anti-phospho-SMAD1/5 (9516), anti-SMAD1 XP (6944), anti-phospho-SMAD2/3 (8828), anti-SMAD2/3 XP (8685), anti-phospho-JNK (4668), anti-SAPK/JNK (9252), anti-phospho-Akt XP (4060), pan anti-Akt (4691), anti-phospho ERK p42/p44 (4377), anti-ERK p42/p44 (9102), anti-phospho-MKK3/6 (12280), anti-MKK3 (8535), anti-phospho-TAK1 (4531), anti-TAK1 (5206), anti-HA (3274), and anti-FLAG (14793); all from Cell Signaling); and mouse anti-p38α (cat. no. […]
Background: Immunoblotting shows a protein as a band on a membrane.

The subject of experiment [1] is primary human mesenchymal stem cells (hMSCs). In words: In vitro mineralization assay (alizarin red) in hMSCs. It counts as cell-based. To be noted: hMSCs in osteogenic medium, 10 μM from day 12 to 18, normalized to cell number. The procedure:
To extend these observations to human osteoblast maturation, a quantitative assay was used to analyze mineralization in differentiating primary human mesenchymal stem cells (hMSCs). Bone marrow-derived hMSCs were cultured in unbiased growth medium for at least two passages and then cultured in osteogenic medium for 12 to 21 days and stained with alizarin red to identify a time window in which spontaneous mineralization first occurred (FIG. 4A). Subsequently, hMSCs in osteogenic medium were treated continuously with DIPQUO from day 12 to 18, stained and compared with equivalent DMSO treated controls, and then normalized to total cell numbers (FIG. 4B). DIPQUO-treated samples incorporated alizarin red in a molar ratio approximately 5 times greater than DMSO-treated samples (FIGS. 4C and 4D).
For mineralization studies, primary bone marrow-derived hMSCs (Lonza) were maintained and passaged in complete hMSC growth medium (Lonza). Cells were then switched to osteogenic medium (Lonza PT-3002) for 12 days, after which they were treated with DMSO or 10 μM DIPQUO for an additional 6 days. […] Staining was quantified using the Osteogenesis Quantitation kit (Millipore ECM815) following manufacturer's instructions. […] Absorbance was measured at 405 nm using an EMax Plus microplate reader and SoftMax Pro 7.0 software. […]

Experiment [2] concerns alkaline phosphatase (ALP).

The structures appear in SMILES notation.

In the case of `Cc1cc(C)c2[nH]c(=O)c(-c3[nH]cnc3-c3ccccc3)cc2c1` [RU-0226606, 6,8-dimethyl-3-(4-phenyl-1H-imidazol-5-yl)quinolin-2(1H)-one], the “changes in expression of OCN and Osteoactivin (qRT-PCR)” value with C2C12 cells (2 days, compared with BMP-treated positive controls) is “much higher with DIPQUO treatment than in BMP-treated positive controls”. The “expression of Runx2 and Osterix (qRT-PCR)” value with C2C12 cells (2 days, vs DMSO) is listed as “significant upregulation”. Also, the “expression of ALP and OCN (qRT-PCR)” value in the experiment with C2C12 cells (day 2, vs DMSO) is given as “substantially increased by day 2”. Besides, in the experiment on p38 MAPK, the “p38 MAPK activation in BRITER cells” value was “maintained the ability to activate p38 MAPK even under conditions of BMP repression”. Besides, the “alizarin red incorporation, molar ratio relative to DMSO-treated samples” value in experiment [1] is given as “approximately 5 times”. Further, the “RFU Score (10 μM)” value in experiment [2] (154-analog library, 10 μM, C2C12, duplicate) is listed as 3104. For the same compound, in experiment [2] (SAR of library and proprietary analogs, AttoPhos assay, C2C12), the “Fluo. Z Score” value is 34.56 ± 1.80. Further, the “RFU Score Threshold ≥ 800” value in experiment [2] (primary screen, 10 μM, C2C12, 4 days, Ex 450/Em 580 nm, rank in brackets not taken) is 4000 (1). Moreover, in experiment [2] (primary screen, 10 μM, C2C12, 4 days, Z score on DMSO control wells), the “Fluorescence Z Score Threshold ≥ 10” value is listed as 94.38 (1).
